Target: T1, PPARG-LBD (Homo sapiens, UniProt P37231)
T1 construct: purchased ThermoFisher
T1 sequence (P37231 238-503 limits assumed): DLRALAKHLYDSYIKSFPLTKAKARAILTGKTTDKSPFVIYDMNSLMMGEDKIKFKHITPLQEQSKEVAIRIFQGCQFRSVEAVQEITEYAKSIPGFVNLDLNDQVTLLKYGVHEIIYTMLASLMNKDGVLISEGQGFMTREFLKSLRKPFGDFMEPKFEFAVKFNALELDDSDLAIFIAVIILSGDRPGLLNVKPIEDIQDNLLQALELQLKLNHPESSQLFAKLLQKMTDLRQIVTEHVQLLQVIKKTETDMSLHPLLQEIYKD
Experiment: Biochemical LanthaScreen TR-FRET PPAR gamma corepressor assay (PPARG-LBD / NCOR2 peptide)
Conditions: 2 h, read-out: Efficacy
Method: Biochemical Assay for Determining Inverse Agonist Activity of Compounds
A biochemical interaction assay measuring the ligand-dependent changes in interactions between the PPARG-LBD and a fluorescent peptide from the corepressor, NCOR2 (Smrt ID2, ThermoFisher), was performed to evaluate inverse agonist activity.
This assay was performed according to the manufacturers protocol (LanthaScreen TR-FRET PPAR gamma Corepressor Assay, ThermoFisher). […] After incubation the FRET signal was measured using an PHERAstar Plus Plate Reader (BMG). Every sample was tested in duplicate and mean values were used to calculate the EC50 values and efficacies of the compounds. A model of nonlinear regression curve fit was used for calculation.

C=CC(=O)Nc1ccc2oc(-c3ccc(CC)cc3)nc2c1 [Example 24, N-[2-(4-Ethylphenyl)-1,3-benzoxazol-5-yl]prop-2-enamide]
Emax: 0%

Source: patent US20240109850A1, “Covalent PPARG inverse-agonists” (Bayer Aktiengesellschaft, priority 2022, published 2024)
